Assay results as given in the NIST ThermoML archive (doi:10.1021/je0601457).
± gives the expanded uncertainty stated by the source.

Assay: xn = mol fraction of the nth substance listed

c1cnccn1 [pyrazine] + O=C=O
Fluid (supercritical or subcritical phases), Linear displacement technique
Conditions	mass density [kg/m3]
321.55 K, 14590 kPa, x1 = 0.177	866 ± 35
322.35 K, 7410 kPa, x1 = 0.495	980 ± 39
322.35 K, 10310 kPa, x1 = 0.495	990 ± 40
322.35 K, 13000 kPa, x1 = 0.495	963 ± 39
323.35 K, 10030 kPa, x1 = 0.074	825 ± 48
323.35 K, 10240 kPa, x1 = 0.074	835 ± 34
323.35 K, 11900 kPa, x1 = 0.074	876 ± 35
324.65 K, 9340 kPa, x1 = 0.015	394 ± 23
324.65 K, 9620 kPa, x1 = 0.015	408 ± 39
324.65 K, 9830 kPa, x1 = 0.015	423 ± 37
324.65 K, 10970 kPa, x1 = 0.015	576 ± 46
324.65 K, 11380 kPa, x1 = 0.015	611 ± 34
324.65 K, 11620 kPa, x1 = 0.015	627 ± 34
324.65 K, 11760 kPa, x1 = 0.015	640 ± 33
325.85 K, 10170 kPa, x1 = 0.116	739 ± 30
325.85 K, 13140 kPa, x1 = 0.116	767 ± 31
326.15 K, 9900 kPa, x1 = 0.019	460 ± 57
326.15 K, 10520 kPa, x1 = 0.019	580 ± 53
326.15 K, 11140 kPa, x1 = 0.019	656 ± 42
326.15 K, 11520 kPa, x1 = 0.019	688 ± 33
326.15 K, 12310 kPa, x1 = 0.019	729 ± 30
326.65 K, 8860 kPa, x1 = 0.397	1023 ± 41
326.65 K, 11070 kPa, x1 = 0.397	1027 ± 41
326.65 K, 14100 kPa, x1 = 0.397	1036 ± 41
327.25 K, 10170 kPa, x1 = 0.146	980 ± 39
327.25 K, 15900 kPa, x1 = 0.146	990 ± 46
328.15 K, 11830 kPa, x1 = 0.308	980 ± 39
328.15 K, 13760 kPa, x1 = 0.308	990 ± 40
328.15 K, 15340 kPa, x1 = 0.308	997 ± 40
332.95 K, 18030 kPa, x1 = 0.224	879 ± 35
334.05 K, 11550 kPa, x1 = 0.177	803 ± 33
334.05 K, 11900 kPa, x1 = 0.177	809 ± 32
334.05 K, 15590 kPa, x1 = 0.177	831 ± 33
334.75 K, 10340 kPa, x1 = 0.495	980 ± 39
334.75 K, 13550 kPa, x1 = 0.495	987 ± 39
334.75 K, 19410 kPa, x1 = 0.495	1002 ± 40
337.05 K, 11660 kPa, x1 = 0.146	760 ± 31
337.05 K, 15140 kPa, x1 = 0.146	792 ± 32
337.85 K, 12170 kPa, x1 = 0.09	738 ± 31
337.85 K, 12590 kPa, x1 = 0.09	752 ± 32
337.85 K, 15900 kPa, x1 = 0.09	815 ± 33
338.45 K, 11520 kPa, x1 = 0.019	475 ± 20
338.45 K, 11970 kPa, x1 = 0.019	512 ± 36
338.45 K, 12170 kPa, x1 = 0.019	526 ± 35
338.45 K, 12590 kPa, x1 = 0.019	565 ± 36
339.45 K, 12590 kPa, x1 = 0.074	708 ± 44

linear displacement
Conditions	mass density [kg/m3]
321.55 K, Liquid, x1 = 0.177	834 ± 33
322.35 K, Liquid, x1 = 0.495	975 ± 39
323.35 K, Liquid, x1 = 0.074	810 ± 32
324.65 K, Gas, x1 = 0.015	382 ± 15
325.85 K, Liquid, x1 = 0.116	734 ± 30
326.15 K, Gas, x1 = 0.019	442 ± 18
326.65 K, Liquid, x1 = 0.397	1017 ± 41
327.25 K, Liquid, x1 = 0.146	790 ± 32
328.15 K, Liquid, x1 = 0.308	970 ± 39
332.95 K, Liquid, x1 = 0.224	842 ± 34
334.05 K, Liquid, x1 = 0.177	795 ± 32
334.75 K, Liquid, x1 = 0.495	972 ± 39
337.05 K, Liquid, x1 = 0.146	753 ± 30
337.85 K, Liquid, x1 = 0.09	727 ± 29
338.45 K, Gas, x1 = 0.019	431 ± 18
